# Measured values published in ChEMBL document CHEMBL1154629, “Design, synthesis and biological evaluation of novel thiazole derivatives as potent FabH inhibitors” (Bioorg Med Chem Lett, 2009).
# Legend:
# Staphylococcus aureus = test: Antimicrobial activity Staphylococcus aureus ATCC 6538 by MTT assay; format: functional
# Pseudomonas aeruginosa = test: Antimicrobial activity Pseudomonas aeruginosa ATCC 13525 by MTT assay
# Enterobacter cloacae = test: Antimicrobial activity Enterobacter cloacae ATCC 13047 by MTT assay; format: functional
# Bacillus subtilis = test: Antimicrobial activity Bacillus subtilis ATCC 6633 by MTT assay; format: functional
# Enterococcus faecalis = test: Antimicrobial activity Streptococcus faecalis ATCC 9790 by MTT assay; format: functional
# [1] = Toxicity in erythrocytes assessed as hemolysis; format: cell-based; settings: erythrocyte
# [2] = molecular target: T1, 3-oxoacyl-[acyl-carrier-protein] synthase 3 (Escherichia coli, UniProt C3TDZ2); test: Inhibition of Escherichia coli FabH
# T1 sequence (C3TDZ2 whole entry): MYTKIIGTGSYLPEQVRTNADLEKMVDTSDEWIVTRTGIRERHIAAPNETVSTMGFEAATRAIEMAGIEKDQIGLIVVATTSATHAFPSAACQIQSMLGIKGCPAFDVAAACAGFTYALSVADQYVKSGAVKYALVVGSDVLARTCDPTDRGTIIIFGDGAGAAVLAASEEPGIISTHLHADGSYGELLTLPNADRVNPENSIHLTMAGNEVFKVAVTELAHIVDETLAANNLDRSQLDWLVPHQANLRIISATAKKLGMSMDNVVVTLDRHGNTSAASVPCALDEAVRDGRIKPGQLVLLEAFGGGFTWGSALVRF
# Escherichia coli = test: Antimicrobial activity Escherichia coli ATCC 35218 by MTT assay
MIC (Staphylococcus aureus) [µg/mL],MIC (Pseudomonas aeruginosa) [µg/mL],MIC (Enterobacter cloacae) [µg/mL],MIC (Bacillus subtilis) [µg/mL],MIC (Enterococcus faecalis) [µg/mL],IC50 [2] [µM],MIC (Escherichia coli) [µg/mL],Compound,LC30 [1] [mg/mL]
25,25,25,25,25,–,–,Clc1ccc(/C=N/Nc2nc(-c3ccccc3)cs2)cc1,–
> 50,12.5,> 50,> 50,25,–,12.5,Oc1ccc(Cl)cc1/C=N/Nc1nc(-c2ccccc2)cs1,–
> 50,25,25,12.5,25,–,25,Oc1c(Br)cc(Br)cc1/C=N/Nc1nc(-c2ccccc2)cs1,–
25,25,12.5,> 50,> 50,–,25,Cc1ccc(/C=N/Nc2nc(-c3ccc(Cl)c(Cl)c3)cs2)cc1,–
12.5,> 50,12.5,12.5,25,–,–,Clc1ccc(-c2csc(N/N=C/c3ccc(Br)cc3)n2)cc1,–
6.25,25,25,12.5,12.5,–,–,Fc1ccc(/C=N/Nc2nc(-c3ccc(Cl)cc3)cs2)cc1,–
12.5,12.5,25,> 50,1.56,–,–,Brc1ccc(/C=N/Nc2nc(-c3ccccc3)cs2)cc1,–
25,25,6.25,25,> 50,–,–,COc1ccc(/C=N/Nc2nc(-c3ccc(Cl)c(Cl)c3)cs2)cc1,–
12.5,12.5,> 50,> 50,12.5,39.6,–,Oc1ccc(Cl)cc1/C=N/Nc1nc(-c2ccc(Cl)c(Cl)c2)cs1,> 10
3.12,12.5,> 50,6.25,25,–,12.5,Clc1ccc(-c2csc(N/N=C/c3ccc(Br)cc3)n2)cc1Cl,–
1.56,3.12,1.56,0.39,3.12,–,3.12,NC[C@H]1O[C@H](O[C@H]2[C@H](O)[C@@H](O[C@H]3O[C@H](CO)[C@@H](O)[C@H](N)[C@H]3O)[C@H](N)C[C@@H]2N)[C@H](N)[C@@H](O)[C@@H]1O [BEKANAMYCIN],–

# Second part, the compound before the results:
Compound,MIC (Staphylococcus aureus) [µg/mL],MIC (Pseudomonas aeruginosa) [µg/mL],MIC (Enterobacter cloacae) [µg/mL],MIC (Bacillus subtilis) [µg/mL],MIC (Enterococcus faecalis) [µg/mL],IC50 [2] [µM],MIC (Escherichia coli) [µg/mL],LC30 [1] [mg/mL]
COc1ccc(/C=N/Nc2nc(-c3ccccc3)cs2)cc1,> 50,> 50,> 50,25,> 50,–,–,–
COc1ccc(/C=N/Nc2nc(-c3ccc(Cl)cc3)cs2)cc1,25,25,> 50,12.5,> 50,–,–,–
Oc1ccc(Cl)cc1/C=N/Nc1nc(-c2ccc(Cl)cc2)cs1,12.5,12.5,12.5,6.25,25,11.7,–,> 10
Clc1ccc(/C=N/Nc2nc(-c3ccc(Cl)cc3)cs2)cc1,12.5,6.25,> 50,> 50,> 50,–,–,–
Oc1c(Br)cc(Br)cc1/C=N/Nc1nc(-c2ccc(Cl)c(Cl)c2)cs1,6.25,3.12,3.12,3.12,6.25,3.6,–,> 10
Clc1ccc(/C=N/Nc2nc(-c3ccc(Cl)c(Cl)c3)cs2)cc1,1.56,12.5,25,12.5,25,–,12.5,–
Oc1ccc(Br)cc1/C=N/Nc1nc(-c2ccccc2)cs1,25,25,25,12.5,12.5,–,–,–
Oc1ccc(Br)cc1/C=N/Nc1nc(-c2ccc(Cl)cc2)cs1,6.25,6.25,6.25,25,12.5,6.8,–,> 10
Oc1c(Cl)cc(Cl)cc1/C=N/Nc1nc(-c2ccc(Cl)cc2)cs1,> 50,6.25,> 50,> 50,12.5,57.6,6.25,> 10
Oc1c(Cl)cc(Cl)cc1/C=N/Nc1nc(-c2ccc(Cl)c(Cl)c2)cs1,6.25,6.25,12.5,12.5,12.5,16.5,–,> 10
Fc1ccc(/C=N/Nc2nc(-c3ccc(Cl)c(Cl)c3)cs2)cc1,0.78,25,25,6.25,6.25,–,25,–
Oc1c(Br)cc(Br)cc1/C=N/Nc1nc(-c2ccc(Cl)cc2)cs1,25,25,6.25,> 50,> 50,78.4,–,> 10
Cc1ccc(/C=N/Nc2nc(-c3ccc(Cl)cc3)cs2)cc1,25,25,6.25,6.25,12.5,–,–,–
Oc1c(Cl)cc(Cl)cc1/C=N/Nc1nc(-c2ccccc2)cs1,> 50,> 50,12.5,25,25,–,–,–
Oc1ccc(Br)cc1/C=N/Nc1nc(-c2ccc(Cl)c(Cl)c2)cs1,25,12.5,12.5,12.5,> 50,43.4,–,> 10
Fc1ccc(/C=N/Nc2nc(-c3ccccc3)cs2)cc1,6.25,12.5,> 50,12.5,> 50,–,–,–
Cc1ccc(/C=N/Nc2nc(-c3ccccc3)cs2)cc1,25,25,> 50,> 50,> 50,–,–,–
CC1(C)S[C@@H]2[C@H](NC(=O)Cc3ccccc3)C(=O)N2[C@H]1C(=O)O [PENICILLIN G],1.56,6.25,3.12,1.56,1.56,–,6.25,–
